Results published in ChEMBL document CHEMBL1137874, “A new class of acyclic 2-alkyl-1,2-diaryl (E)-olefins as selective cyclooxygenase-2 (COX-2) inhibitors” (Bioorg Med Chem Lett, 2004).

Each compound was assayed against T1, Prostaglandin G/H synthase 1 (Ovis aries, UniProt P05979) (assay: In vitro inhibitory concentration against ovine Prostaglandin G/H synthase 1).
T1 sequence (P05979 whole entry): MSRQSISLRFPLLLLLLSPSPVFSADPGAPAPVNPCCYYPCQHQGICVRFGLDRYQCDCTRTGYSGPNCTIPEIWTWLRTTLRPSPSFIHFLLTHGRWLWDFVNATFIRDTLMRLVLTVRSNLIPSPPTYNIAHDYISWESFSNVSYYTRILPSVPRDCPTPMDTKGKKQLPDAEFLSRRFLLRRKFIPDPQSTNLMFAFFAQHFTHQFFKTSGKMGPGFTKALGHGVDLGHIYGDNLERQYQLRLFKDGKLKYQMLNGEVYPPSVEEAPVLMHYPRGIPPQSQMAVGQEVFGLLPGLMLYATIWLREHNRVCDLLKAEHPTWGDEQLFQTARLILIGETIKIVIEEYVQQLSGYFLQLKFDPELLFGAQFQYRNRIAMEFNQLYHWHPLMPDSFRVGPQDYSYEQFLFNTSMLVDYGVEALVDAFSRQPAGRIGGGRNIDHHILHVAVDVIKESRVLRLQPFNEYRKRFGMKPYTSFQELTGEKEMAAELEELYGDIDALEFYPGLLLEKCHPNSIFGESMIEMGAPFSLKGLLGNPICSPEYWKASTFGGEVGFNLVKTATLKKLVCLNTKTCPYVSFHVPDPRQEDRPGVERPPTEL

SMILES	IC50 [µM]
CC/C(=C\c1ccc(C)cc1)c1ccc(S(C)(=O)=O)cc1	0.03
CCCCCC/C(=C\c1ccccc1)c1ccc(S(C)(=O)=O)cc1	> 100
CCC/C(=C\c1ccccc1)c1ccc(S(C)(=O)=O)cc1	> 100
CC/C(=C\c1ccccc1)c1ccc(S(C)(=O)=O)cc1	> 100
CCCCCCC/C(=C\c1ccccc1)c1ccc(S(C)(=O)=O)cc1	> 100
